From PMC12319374, “Efficient and Rapid Arylation of NH₂‐Unprotected Bromobisindole Ethanamines via Suzuki‐Miyaura Coupling: Generating New Leads Against Leishmania” (Chemistry (Weinheim an Der Bergstrasse, Germany), 2025)
Read-outs that look alike come from different tables or passages of the source.

Legend:
[1] = system: L. infantum MHOM/TN/80/IPT1 promastigotes; test: L. infantum promastigotes viability assay (MTS); assay type: cell-based, Leishmania infantum; settings: Leishmania infantum, 72 h; for inhibition at 20 µM: single dose 20 µM
Procedure: (§1) Finally, eighteen compounds were first screened for efficacy against L. infantum MHOM/TN/80/IPT1 promastigotes at a single dose of 20 µM for 72 hours.
(§2) L. infantum MHOM/TN/80/IPT1 (WHO international reference strain) was purchased from ATCC (ATCC® 50134™) and was cultured in Evans's Modified Tobie Medium (EMTM) at 26–28 °C. To test the compounds, parasites were resuspended in RPMI-PY medium as described previously. The human monocytic cell line THP-1 (ECACC 88081201) was cultured in RPMI-1640 medium supplemented with 10% heat-inactivated Fetal Bovine Serum (FBS), 100 μg/ml streptomycin, […] and maintained in a humidified incubator at 37 °C and 5% CO2. All the cell culture reagents were purchased from Sigma-Aldrich (St. Louis, MO, USA).
Late log/stationary phase L. infantum promastigotes were resuspended in RPMI-PY medium at a density of 2.5×10^6 parasites/mL in 96-well plates (100μL/well). The anti-parasitic activity of the eighteen compounds of the library was initially investigated at a single dose of 20 μM for 72 h at 26 °C. […] Not treated parasites were included as negative control. As positive control, the anti-leishmanial drug miltefosine (Sigma-Aldrich, Milan, Italy) was used. Each condition was carried out in duplicate. To evaluate the promastigotes viability, the CellTiter 96H Aqueous Non-Radioactive Cell Proliferation Assay (Promega), based on the ability of viable cells to convert a soluble tetrazolium salt [3-(4.5-dimethylthiazol-2-yl)-5-(3-carboxymethoxy-phenyl)-2-(4-sulfophenyl)-2H-tetrazolium. MTS] to a formazan product, was performed. To this end, 20 μL of MTS/PMS (phenazinemethosulfate, Sigma-Aldrich) was added to 100 μL of culture medium and incubated at 26°C until formazan production. Absorbance was recorded on a Microplate Reader (Infinite® F50 Plus, Tecan) at 492 nm. The IC50 values were calculated using nonlinear regression curves in GraphPad Prism 8.0 (GraphPad Software,Inc., San Diego, CA). The equation used for data fitting was Y= 100/(1 + 10∧((Log IC50 −X)*HillSlope)) (hillslope not constrained), where X is the log of concentration and Y is the normalized response. […]

THP-1 cells = test: Evaluation of cytotoxicity on THP-1 cells (MTS); assay type: cell-based, human; settings: for Cytotoxicity on THP‐1 (100, 20, 4 µM) (%): 72 h, PMA-differentiated THP-1
Procedure: as §1, §2
(§3) The cytotoxicity of the compounds was assessed on THP-1 cells seeded at a density of 5 × 10^5 cells per mL, 100μL/well in a 96-well plate and treated for 72 h with 20 ng/mL phorbol myristic acid (PMA) to induce differentiation into macrophages like cells. After cell adhesion to the plate, each molecule was tested at 4, 20 and 100 μM for 72 h at 37 °C.
(§4) Three selected compounds were further evaluated at different concentration, obtained from scalar dilutions 1:2 (from 100 µM to 3.12 μM) for 72 h at 37°C. The negative control (untreated THP-1 cells) and the positive control (miltefosine) were included in each experiment. Each condition was carried out in duplicate. To evaluate the compounds cytotoxicity, the CellTiter 96H Aqueous Non-Radioactive Cell Proliferation Assay (Promega), was used as described before. […]

[2] = Evaluation of cytotoxicity on THP-1 cells (MTS); assay type: cell-based, human; settings: human, 72 h
Procedure: as §1, §2, §3, §4

[3] = roughly determined from 100, 20 and 4 µM, read-out: CC50 interval on THP-1 cells

NCC(c1c[nH]c2cc(-c3ccccc3)ccc12)c1c[nH]c2cc(-c3ccccc3)ccc12 [3aa, 2,2-bis(6-phenyl-1H-indol-3-yl)ethan-1-amine]
inhibition at 20 µM [1]: 96.2% | Cytotoxicity on THP‐1 (100, 20, 4 µM) (%) (THP-1 cells; 4 µM): −18% | Cytotoxicity on THP‐1 (100, 20, 4 µM) (%) (THP-1 cells; 20 µM): 97% | Cytotoxicity on THP‐1 (100, 20, 4 µM) (%) (THP-1 cells; 100 µM): 87%

NCC(c1c[nH]c2cc(-c3ccc(F)cc3)ccc12)c1c[nH]c2cc(-c3ccc(F)cc3)ccc12 [3ab, 2,2-bis(6-(4-fluorophenyl)-1H-indol-3-yl)ethan-1-amine]
inhibition at 20 µM [1]: 97.1% | Cytotoxicity on THP‐1 (100, 20, 4 µM) (%) (THP-1 cells; 4 µM): −33% | Cytotoxicity on THP‐1 (100, 20, 4 µM) (%) (THP-1 cells; 20 µM): 97% | Cytotoxicity on THP‐1 (100, 20, 4 µM) (%) (THP-1 cells; 100 µM): 85%

CC(C)Cc1ccc(-c2ccc3c(C(CN)c4c[nH]c5cc(-c6ccc(CC(C)C)cc6)ccc45)c[nH]c3c2)cc1 [3ac, 2,2-bis(6-(4-isobutylphenyl)-1H-indol-3-yl)ethan-1-amine]
inhibition at 20 µM [1]: ≤ 51.4% | CC50 at 72 h [2, 3]: 20 to 100 µM | Cytotoxicity on THP‐1 (100, 20, 4 µM) (%) (THP-1 cells; 4 µM): −17% | Cytotoxicity on THP‐1 (100, 20, 4 µM) (%) (THP-1 cells; 20 µM): 1% | Cytotoxicity on THP‐1 (100, 20, 4 µM) (%) (THP-1 cells; 100 µM): 88%

COc1ccc(-c2ccc3c(C(CN)c4c[nH]c5cc(-c6ccc(OC)cc6)ccc45)c[nH]c3c2)cc1 [3ad, 2,2-bis(6-(4-methoxyphenyl)-1H-indol-3-yl)ethan-1-amine]
inhibition at 20 µM [1]: 95.1% | Cytotoxicity on THP‐1 (100, 20, 4 µM) (%) (THP-1 cells; 4 µM): −12% | Cytotoxicity on THP‐1 (100, 20, 4 µM) (%) (THP-1 cells; 20 µM): 96% | Cytotoxicity on THP‐1 (100, 20, 4 µM) (%) (THP-1 cells; 100 µM): 86%

NCC(c1c[nH]c2cc(-c3cccc(Cl)c3)ccc12)c1c[nH]c2cc(-c3cccc(Cl)c3)ccc12 [3ag, 2,2-bis(6-(3-chlorophenyl)-1H-indol-3-yl)ethan-1-amine]
inhibition at 20 µM [1]: 93.6% | Cytotoxicity on THP‐1 (100, 20, 4 µM) (%) (THP-1 cells; 4 µM): −7% | Cytotoxicity on THP‐1 (100, 20, 4 µM) (%) (THP-1 cells; 20 µM): 97% | Cytotoxicity on THP‐1 (100, 20, 4 µM) (%) (THP-1 cells; 100 µM): 84%

NCC(c1c[nH]c2cc(-c3cccc(-c4ccccc4)c3)ccc12)c1c[nH]c2cc(-c3cccc(-c4ccccc4)c3)ccc12 [3ah, 2,2-bis(6-([1,1'-biphenyl]-3-yl)-1H-indol-3-yl)ethan-1-amine]
CC50 at 72 h [2, 3]: 20 to 100 µM | Cytotoxicity on THP‐1 (100, 20, 4 µM) (%) (THP-1 cells; 4 µM): −20% | Cytotoxicity on THP‐1 (100, 20, 4 µM) (%) (THP-1 cells; 20 µM): 32% | Cytotoxicity on THP‐1 (100, 20, 4 µM) (%) (THP-1 cells; 100 µM): 77%

NCC(c1c[nH]c2cc(-c3cccc(OCc4ccccc4)c3)ccc12)c1c[nH]c2cc(-c3cccc(OCc4ccccc4)c3)ccc12 [3ai, 2,2-bis(6-(3-(benzyloxy)phenyl)-1H-indol-3-yl)ethan-1-amine]
Cytotoxicity on THP‐1 (100, 20, 4 µM) (%) (THP-1 cells; 4 µM): 1% | Cytotoxicity on THP‐1 (100, 20, 4 µM) (%) (THP-1 cells; 20 µM): 90% | Cytotoxicity on THP‐1 (100, 20, 4 µM) (%) (THP-1 cells; 100 µM): 72%

COc1cccc(-c2ccc3c(C(CN)c4c[nH]c5cc(-c6cccc(OC)c6)ccc45)c[nH]c3c2)c1 [3aj, 2,2-bis(6-(3-methoxyphenyl)-1H-indol-3-yl)ethan-1-amine]
inhibition at 20 µM [1]: 96.5% | Cytotoxicity on THP‐1 (100, 20, 4 µM) (%) (THP-1 cells; 4 µM): 2% | Cytotoxicity on THP‐1 (100, 20, 4 µM) (%) (THP-1 cells; 20 µM): 97% | Cytotoxicity on THP‐1 (100, 20, 4 µM) (%) (THP-1 cells; 100 µM): 85%

COc1ccccc1-c1ccc2c(C(CN)c3c[nH]c4cc(-c5ccccc5OC)ccc34)c[nH]c2c1 [3ak, 2,2-bis(6-(2-methoxyphenyl)-1H-indol-3-yl)ethan-1-amine]
inhibition at 20 µM [1]: 96.5% | Cytotoxicity on THP‐1 (100, 20, 4 µM) (%) (THP-1 cells; 4 µM): −4% | Cytotoxicity on THP‐1 (100, 20, 4 µM) (%) (THP-1 cells; 20 µM): 97% | Cytotoxicity on THP‐1 (100, 20, 4 µM) (%) (THP-1 cells; 100 µM): 86%

COc1cccc(OC)c1-c1ccc2c(C(CN)c3c[nH]c4cc(-c5c(OC)cccc5OC)ccc34)c[nH]c2c1 [3al, 2,2-bis(6-(2,6-dimethoxyphenyl)-1H-indol-3-yl)ethan-1-amine]
inhibition at 20 µM [1]: ≤ 51.4% | CC50 at 72 h [2, 3]: 20 to 100 µM | Cytotoxicity on THP‐1 (100, 20, 4 µM) (%) (THP-1 cells; 4 µM): −5% | Cytotoxicity on THP‐1 (100, 20, 4 µM) (%) (THP-1 cells; 20 µM): 47% | Cytotoxicity on THP‐1 (100, 20, 4 µM) (%) (THP-1 cells; 100 µM): 84%

NCC(c1c[nH]c2cc(-c3cccc4ccccc34)ccc12)c1c[nH]c2cc(-c3cccc4ccccc34)ccc12 [3an, 2,2-bis(6-(naphthalen-1-yl)-1H-indol-3-yl)ethan-1-amine]
inhibition at 20 µM [1]: 97.8% | Cytotoxicity on THP‐1 (100, 20, 4 µM) (%) (THP-1 cells; 4 µM): −15% | Cytotoxicity on THP‐1 (100, 20, 4 µM) (%) (THP-1 cells; 20 µM): 95% | Cytotoxicity on THP‐1 (100, 20, 4 µM) (%) (THP-1 cells; 100 µM): 79%

NCC(c1c[nH]c2cc(-c3ccc4ccccc4c3)ccc12)c1c[nH]c2cc(-c3ccc4ccccc4c3)ccc12 [3ao, 2,2-bis(6-(naphthalen-2-yl)-1H-indol-3-yl)ethan-1-amine]
inhibition at 20 µM [1]: 95.1% | Cytotoxicity on THP‐1 (100, 20, 4 µM) (%) (THP-1 cells; 4 µM): −13% | Cytotoxicity on THP‐1 (100, 20, 4 µM) (%) (THP-1 cells; 20 µM): 94% | Cytotoxicity on THP‐1 (100, 20, 4 µM) (%) (THP-1 cells; 100 µM): 76%

CC(C)(C)OC(=O)n1cccc1-c1ccc2c(C(CN)c3c[nH]c4cc(-c5cccn5C(=O)OC(C)(C)C)ccc34)c[nH]c2c1 [3ap, di-tert-butyl 2,2'-((2-aminoethane-1,1-diyl)bis(1H-indole-3,6-diyl))bis(1H-pyrrole-1-carboxylate)]
inhibition at 20 µM [1]: 92.6% | Cytotoxicity on THP‐1 (100, 20, 4 µM) (%) (THP-1 cells; 4 µM): 22% | Cytotoxicity on THP‐1 (100, 20, 4 µM) (%) (THP-1 cells; 20 µM): 97% | Cytotoxicity on THP‐1 (100, 20, 4 µM) (%) (THP-1 cells; 100 µM): 85%

NCC(c1c[nH]c2cc(/C=C/c3ccc(Cl)cc3)ccc12)c1c[nH]c2cc(/C=C/c3ccc(Cl)cc3)ccc12 [3ar, 2,2-bis(6-((E)-4-chlorostyryl)-1H-indol-3-yl)ethan-1-amine]
inhibition at 20 µM [1]: 95.1% | Cytotoxicity on THP‐1 (100, 20, 4 µM) (%) (THP-1 cells; 4 µM): −32% | Cytotoxicity on THP‐1 (100, 20, 4 µM) (%) (THP-1 cells; 20 µM): 95% | Cytotoxicity on THP‐1 (100, 20, 4 µM) (%) (THP-1 cells; 100 µM): 66%

NCC(c1c[nH]c2ccc(-c3ccccc3)cc12)c1c[nH]c2ccc(-c3ccccc3)cc12 [3ba, 2,2-bis(5-phenyl-1H-indol-3-yl)ethan-1-amine]
inhibition at 20 µM [1]: 96.8% | Cytotoxicity on THP‐1 (100, 20, 4 µM) (%) (THP-1 cells; 4 µM): −22% | Cytotoxicity on THP‐1 (100, 20, 4 µM) (%) (THP-1 cells; 20 µM): 98% | Cytotoxicity on THP‐1 (100, 20, 4 µM) (%) (THP-1 cells; 100 µM): 91%

CCCCCCCCCCCCCCCCOP(=O)([O-])OCC[N+](C)(C)C [Milt, miltefosine, reference compound]
IC50 ([1]; scalar dilutions 2:3 from 20 to 1.17 µM, mean (95% CI)): 3.7 µM | inhibition at 20 µM [1]: 98.5% | CC50 at 72 h ([2]; scalar dilutions 1:2 from 100 to 3.12 µM, mean (95% CI), read-out: THP‐1 CC50 (µM) (95% CI)): 36.6 µM | Cytotoxicity on THP‐1 (100, 20, 4 µM) (%) (THP-1 cells; 4 µM): −35% | Cytotoxicity on THP‐1 (100, 20, 4 µM) (%) (THP-1 cells; 20 µM): 6% | Cytotoxicity on THP‐1 (100, 20, 4 µM) (%) (THP-1 cells; 100 µM): 99% | SI (Selectivity index = CC50/IC50) (THP-1 cells; CC50 THP-1 (72 h) / IC50 L. infantum promastigotes (72 h)): 9.8
